{"source": "patent US10208059B2", "about": "“Heterocyclic modulators of HIF activity for treatment of disease” (Board of Regents, University of Texas System, priority 2012, dated 2019)", "data": [{"test_system": "293T-HRE-GFP-luc cells", "assay": "Cell-based reporter assay for IC50 determinations", "settings": "hypoxia 6 hrs (1% O2), luminescence, read-out: IC50 Classification", "protocol": "Cell-Based Reporter Assay for IC50 Determinations\n293T-HRE-GFP-luc cells were routinely maintained in DMEM media (high glucose version with GlutaMAX and HEPES, Gibco, catalog #10564) supplemented with 10% fetal bovine serum and 2 μg/mL puromycin (Invitrogen, catalog #A11138-03) using a humidified incubator (normoxia conditions consisting of 37° C., 5% CO2 and ambient O2).\nIn preparation for the reporter assay, cells were harvested and resuspended in DMEM media (high glucose version with GlutaMAX and HEPES) supplemented with 10% fetal bovine serum. Cells were inoculated into 384-well white Culturplates (Perkin Elmer catalog #6007680) at a density of 12,000 cells/well in a volume of 30 μL. The microplates were incubated overnight (approximately 17-19 hours) at 37° C. with 5% CO2 and ambient O2. Stock solutions of the test compounds were prepared in DMSO (Sigma, Catalog #D2650) and serially diluted 1:3 using DMSO. Compounds were additionally diluted (1:50) with culturemedium and 10 μL were added per well to the Culturplate. Following a 30 min. incubation under normoxia conditions, the plates were incubated in hypoxia for 6 hrs. (37° C., 5% CO2 and 1% O2). Steadylite Plus (Perkin Elmer, catalog #6016751) was then added (40 μL/well), the plates were mixed on an orbital shaker at room temperature in the dark for 15 min., and luminescence was measured using an Envision plate reader (Perkin Elmer). IC50 values were calculated using a four-parameter logistic curve fit. Results are shown below in Table 2; ND indicates no data.", "units": {"IC50": "nM"}, "values": [{"molecule": "COCCCNc1cccc(Cn2nc(-c3nc(-c4ccc(OC(F)(F)F)cc4)no3)nc2C)c1", "note": "[Example 53, N-(3-Methoxypropyl)-3-((5-methyl-3-(3-(4-(trifluoromethoxy)phenyl)-1,2,4-oxadiazol-5-yl)-1H-1,2,4-triazol-1-yl)methyl)aniline]", "IC50": "< 100"}, {"molecule": "Cc1nc(-c2nc(-c3ccc(OC(F)(F)F)cc3)no2)nn1Cc1cnccn1", "note": "[Example 54, 5-(5-Methyl-1-(pyrazin-2-ylmethyl)-1H-1,2,4-triazol-3-yl)-3-(4-(trifluoromethoxy)phenyl)-1,2,4-oxadiazole]", "IC50": "1000 to 10000"}, {"molecule": "Cc1nc(-c2nc(-c3ccc(OC(F)(F)F)cc3)no2)nn1Cc1ccnc(N2CCOCC2)n1", "note": "[Example 55, 4-(4-((5-Methyl-3-(3-(4-(trifluoromethoxy)phenyl)-1,2,4-oxadiazol-5-yl)-1H-1,2,4-triazol-1-yl)methyl)pyrimidin-2-yl)morpholine]", "IC50": "< 100"}, {"molecule": "Cc1nc(-c2noc(-c3ccc(OC(F)(F)F)cc3)n2)nn1Cc1cccc(N2CCN(C)CC2)c1", "note": "[Example 56, 3-(5-Methyl-1-(3-(4-methylpiperazin-1-yl)benzyl)-1H-1,2,4-triazol-3-yl)-5-(4-(trifluoromethoxy)phenyl)-1,2,4-oxadiazole]", "IC50": "< 100"}, {"molecule": "Cc1nc(-c2noc(-c3ccc(OC(F)(F)F)cc3)n2)nn1Cc1cccc(N2CCOCC2)c1", "note": "[Example 57, 4-(3-((5-Methyl-3-(5-(4-(trifluoromethoxy)phenyl)-1,2,4-oxadiazol-3-yl)-1H-1,2,4-triazol-1-yl)methyl)phenyl)morpholine]", "IC50": "< 100"}, {"molecule": "Cc1nc(-c2noc(-c3ccc(OC(F)(F)F)cc3)n2)nn1Cc1cccc(N(C)C)c1", "note": "[Example 58, N,N-Dimethyl-3-((5-methyl-3-(5-(4-(trifluoromethoxy)phenyl)-1,2,4-oxadiazol-3-yl)-1H-1,2,4-triazol-1-yl)methyl)aniline]", "IC50": "100 to 1000"}, {"molecule": "Cc1nc(-c2nc(-c3ccc(OC(F)(F)F)cc3)no2)nn1Cc1cccc(O)c1", "note": "[Example 59, 3-((5-Methyl-3-(3-(4-(trifluoromethoxy)phenyl)-1,2,4-oxadiazol-5-yl)-1H-1,2,4-triazol-1-yl)methyl)phenol]", "IC50": "100 to 1000"}, {"molecule": "COCCOc1cccc(Cn2nc(-c3nc(-c4ccc(OC(F)(F)F)cc4)no3)nc2C)c1", "note": "[Example 60, 5-(1-{[3-(2-Methoxyethoxy)phenyl]methyl}-5-methyl-1H-1,2,4-triazol-3-yl)-3-[4-(trifluoromethoxy)phenyl]-1,2,4-oxadiazole]", "IC50": "< 100"}, {"molecule": "Cc1nc(-c2nc(-c3ccc(OC(F)(F)F)cc3)no2)nn1Cc1cccc(OCC(N)=O)c1", "note": "[Example 61, 2-{3-[(5-Methyl-3-{3-[4-(trifluoromethoxy)phenyl]-124-oxadiazol-5-yl}-1H-124-triazol-1-yl)methyl]phenoxy}acetamide]", "IC50": "< 100"}, {"molecule": "Cc1nc(-c2nc(-c3ccc(OC(F)(F)F)cc3)no2)nn1Cc1cccc(OCC(=O)N(C)C)c1", "note": "[Example 62, N N-Dimethyl-2-{3-[(5-methyl-3-{3-[4-(trifluoromethoxy)phenyl]-124-oxadiazol-5-yl}-1H-124-triazol-1-yl)methyl]phenoxy}acetamide]", "IC50": "< 100"}, {"molecule": "Cc1nc(-c2nc(-c3ccc(OC(F)(F)F)cc3)no2)nn1Cc1cccc(OC(C)C)c1", "note": "[Example 63, 5-(5-Methyl-1-{[3-(propan-2-yloxy)phenyl]methyl}-1H-1,2,4-triazol-3-yl)-3-[4-(trifluoromethoxy)phenyl]-1,2,4-oxadiazole]", "IC50": "< 100"}, {"molecule": "CCOc1cccc(Cn2nc(-c3nc(-c4ccc(OC(F)(F)F)cc4)no3)nc2C)c1", "note": "[Example 64, 5-{1-[(3-Ethoxyphenyl)methyl]-5-methyl-1H-1,2,4-triazol-3-yl}-3-[4-(trifluoromethoxy)phenyl]-1,2,4-oxadiazole]", "IC50": "< 100"}, {"molecule": "Cc1nc(-c2nc(-c3ccc(OC(F)(F)F)cc3)no2)nn1Cc1cccc(OCCO)c1", "note": "[Example 65, 2-{3-[(5-Methyl-3-{3-[4-(trifluoromethoxy)phenyl]-1,2,4-oxadiazol-5-yl}-1H-1,2,4-triazol-1-yl)methyl]phenoxy}ethan-1-ol]", "IC50": "< 100"}, {"molecule": "Cc1nc(-c2nc(-c3ccc(OC(F)(F)F)cc3)no2)nn1Cc1cccc(OCC#N)c1", "note": "[Example 66, 2-{3-[(5-Methyl-3-{3-[4-(trifluoromethoxy)phenyl]-1,2,4-oxadiazol-5-yl}-1H-1,2,4-triazol-1-yl)methyl]phenoxy}acetonitrile]", "IC50": "100 to 1000"}, {"molecule": "Cc1nc(-c2nc(-c3ccc(OC(F)(F)F)cc3)no2)nn1Cc1cccc(OCCNC(=O)OC(C)(C)C)c1", "note": "[Example 67, Tert-butyl N-(2-{3-[(5-methyl-3-{3-[4-(trifluoromethoxy)phenyl]-1,2,4-oxadiazol-5-yl}-1H-1,2,4-triazol-1-yl)methyl]phenoxy}ethyl)carbamate]", "IC50": "< 100"}, {"molecule": "Cc1nc(-c2nc(-c3ccc(OC(F)(F)F)cc3)no2)nn1Cc1cccc(OC2COC2)c1", "note": "[Example 68, 5-(5-Methyl-1-{[3-(oxetan-3-yloxy)phenyl]methyl}-1H-1,2,4-triazol-3-yl)-3-[4-(trifluoromethoxy)phenyl]-1,2,4-oxadiazole]", "IC50": "< 100"}, {"molecule": "Cc1nc(-c2nc(-c3ccc(OC(F)(F)F)cc3)no2)nn1Cc1cccc(OC2CCOCC2)c1", "note": "[Example 69, 5-(5-Methyl-1-{[3-(oxan-4-yloxy)phenyl]methyl}-1H-1,2,4-triazol-3-yl)-3-[4-(trifluoromethoxy)phenyl]-1,2,4-oxadiazole]", "IC50": "< 100"}, {"molecule": "Cc1nc(-c2nc(-c3ccc(OC(F)(F)F)cc3)no2)nn1Cc1cccc(OCCN)c1", "note": "[Example 70, 5-(1-{[3-(2-Aminoethoxy)phenyl]methyl}-5-methyl-1H-1,2,4-triazol-3-yl)-3-[4-(trifluoromethoxy)phenyl]-1,2,4-oxadiazole]", "IC50": "100 to 1000"}, {"molecule": "Cc1nc(-c2nc(-c3ccc(OC(F)(F)F)cc3)no2)nn1Cc1cccc(OCCCO)c1", "note": "[Example 71, 3-{3-[(5-Methyl-3-{3-[4-(trifluoromethoxy)phenyl]-1,2,4-oxadiazol-5-yl}-1H-1,2,4-triazol-1-yl)methyl]phenoxy}propan-1-ol]", "IC50": "< 100"}, {"molecule": "COC(C)(C)CCOc1cccc(Cn2nc(-c3nc(-c4ccc(OC(F)(F)F)cc4)no3)nc2C)c1", "note": "[Example 72, 5-(1-{[3-(3-Methoxy-3-methylbutoxy)phenyl]methyl}-5-methyl-1H-1,2,4-triazol-3-yl)-3-[4-(trifluoromethoxy)phenyl]-1,2,4-oxadiazole]", "IC50": "< 100"}, {"molecule": "Cc1nc(-c2nc(-c3ccc(OC(F)(F)F)cc3)no2)nn1Cc1cccc(OC2CCN(C)CC2)c1", "note": "[Example 73, 1-Methyl-4-{3-[(5-methyl-3-{3-[4-(trifluoromethoxy)phenyl]-1,2,4-oxadiazol-5-yl}-1H-1,2,4-triazol-1-yl)methyl]phenoxy}piperidine]", "IC50": "< 100"}, {"molecule": "Cc1nc(-c2nc(-c3ccc(OC(F)(F)F)cc3)no2)nn1Cc1cccc(OCCCN(C)C)c1", "note": "[Example 74, Dimethyl(3-{3-[(5-methyl-3-{3-[4-(trifluoromethoxy)phenyl]-1,2,4-oxadiazol-5-yl}-1H-1,2,4-triazol-1-yl)methyl]phenoxy}propyl)amine]", "IC50": "< 100"}, {"molecule": "Cc1nc(-c2nc(-c3ccc(OC(F)(F)F)cc3)no2)nn1Cc1cc[nH]c(=O)c1", "note": "[Example 75, 4-[(5-Methyl-3-{3-[4-(trifluoromethoxy)phenyl]-1,2,4-oxadiazol-5-yl}-1H-1,2,4-triazol-1-yl)methyl]-1,2-dihydropyridin-2-one]", "IC50": "100 to 1000"}]}]}
